Source: BindingDB's records for patent US12415816 (Dana-Farber Cancer Institute, 2025)

Molecular target: Tyrosine-protein kinase JAK2 (Homo sapiens, UniProt O60674)
Assay: Biochemical Assay
Protocol: The JAK2 Z-Lyte biochemical assay was performed according to manufacturer's instructions (Life Technologies).

Tyrosine-protein kinase JAK2, sequence (O60674 whole entry): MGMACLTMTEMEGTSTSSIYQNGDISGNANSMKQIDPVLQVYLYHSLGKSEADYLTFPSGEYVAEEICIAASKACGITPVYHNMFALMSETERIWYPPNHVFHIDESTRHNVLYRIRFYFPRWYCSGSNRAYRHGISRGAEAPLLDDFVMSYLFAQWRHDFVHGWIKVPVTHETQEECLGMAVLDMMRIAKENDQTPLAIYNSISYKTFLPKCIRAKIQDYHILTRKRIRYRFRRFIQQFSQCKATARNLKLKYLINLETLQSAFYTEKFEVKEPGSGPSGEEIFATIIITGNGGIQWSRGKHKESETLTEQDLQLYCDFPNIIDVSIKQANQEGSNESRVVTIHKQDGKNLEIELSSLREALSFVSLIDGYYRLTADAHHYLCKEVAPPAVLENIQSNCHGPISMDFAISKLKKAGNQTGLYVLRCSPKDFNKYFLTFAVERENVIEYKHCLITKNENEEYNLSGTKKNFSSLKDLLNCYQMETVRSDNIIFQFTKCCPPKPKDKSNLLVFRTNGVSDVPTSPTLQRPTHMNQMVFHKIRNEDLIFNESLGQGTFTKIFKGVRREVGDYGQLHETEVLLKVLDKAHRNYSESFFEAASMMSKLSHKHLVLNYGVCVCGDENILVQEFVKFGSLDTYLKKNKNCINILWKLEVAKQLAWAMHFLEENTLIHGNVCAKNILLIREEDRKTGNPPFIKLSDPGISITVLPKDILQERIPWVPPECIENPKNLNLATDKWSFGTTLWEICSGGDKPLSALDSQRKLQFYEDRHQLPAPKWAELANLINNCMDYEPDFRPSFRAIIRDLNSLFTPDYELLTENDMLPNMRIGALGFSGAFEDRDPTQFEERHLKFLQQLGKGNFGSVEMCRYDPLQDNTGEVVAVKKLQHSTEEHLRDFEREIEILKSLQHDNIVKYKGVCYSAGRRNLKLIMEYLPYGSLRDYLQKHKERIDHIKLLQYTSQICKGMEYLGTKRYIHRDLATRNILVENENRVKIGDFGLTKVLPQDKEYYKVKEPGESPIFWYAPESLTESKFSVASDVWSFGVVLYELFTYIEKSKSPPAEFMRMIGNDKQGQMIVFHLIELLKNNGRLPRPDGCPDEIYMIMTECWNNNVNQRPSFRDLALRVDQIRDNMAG

IC50: 1450 nM
SMILES: CCN1CCN(Cc2cc(NC(=O)Nc3ccc(C)c(Oc4ccc5nc(NC(=O)C6CC6)sc5n4)c3)cc(C(F)(F)F)c2)CC1 [US12415816, Compound I-18]
